Assay results: ChEMBL document CHEMBL1649584, “Overexpression of the naturally occurring blaOXA-51 gene in Acinetobacter baumannii mediated by novel insertion sequence ISAba9” (2009)
In brackets after ≈: the same amount, converted by molar mass.

Columns and labels:
Type in all cases: functional
[1] = test system: Acinetobacter baumannii; assay: Antimicrobial activity against Acinetobacter baumannii isolate Ab153 overexpressing beta-lactamase OXA-51 gene mediated by novel insertion sequence ISAba9
[2] = test system: Acinetobacter baumannii; assay: Antimicrobial activity against Acinetobacter baumannii isolate Ab133 overexpressing beta-lactamase OXA-51 gene mediated by novel insertion sequence ISAba9
[3] = test system: Acinetobacter baumannii; assay: Antimicrobial activity against Acinetobacter baumannii isolate Ab63 overexpressing beta-lactamase OXA-51 gene mediated by novel insertion sequence ISAba9
[4] = test system: Acinetobacter baumannii; assay: Antimicrobial activity against Acinetobacter baumannii isolate Ab177 overexpressing beta-lactamase OXA-51 gene mediated by novel insertion sequence ISAba9
[5] = test system: Acinetobacter baumannii; assay: Antimicrobial activity against Acinetobacter baumannii isolate Ab58 overexpressing beta-lactamase OXA-51 gene mediated by novel insertion sequence ISAba9
[6] = test system: Acinetobacter baumannii; assay: Antimicrobial activity against Acinetobacter baumannii isolate Ab5 overexpressing beta-lactamase OXA-51 gene mediated by novel insertion sequence ISAba9
[7] = test system: Acinetobacter baumannii; assay: Antimicrobial activity against Acinetobacter baumannii isolate Ab114 overexpressing beta-lactamase OXA-51 gene mediated by novel insertion sequence ISAba9
[8] = test system: Acinetobacter baumannii; assay: Antimicrobial activity against Acinetobacter baumannii isolate Ab11 overexpressing beta-lactamase OXA-51 gene mediated by novel insertion sequence ISAba9
[9] = test system: Acinetobacter baumannii; assay: Antimicrobial activity against Acinetobacter baumannii isolate Ab12 overexpressing beta-lactamase OXA-51 gene mediated by novel insertion sequence ISAba9
[10] = test system: Acinetobacter baumannii; assay: Antimicrobial activity against Acinetobacter baumannii isolate Ab2 overexpressing beta-lactamase OXA-51 gene mediated by novel insertion sequence ISAba9
[11] = test system: Acinetobacter baumannii; assay: Antimicrobial activity against Acinetobacter baumannii isolate Ab30 overexpressing beta-lactamase OXA-51 gene mediated by novel insertion sequence ISAba9
[12] = test system: Acinetobacter baumannii; assay: Antimicrobial activity against Acinetobacter baumannii isolate Ab185 overexpressing beta-lactamase OXA-51 gene mediated by novel insertion sequence ISAba9
[13] = test system: Acinetobacter baumannii; assay: Antimicrobial activity against Acinetobacter baumannii isolate Ab33 overexpressing beta-lactamase OXA-51 gene mediated by novel insertion sequence ISAba9
[14] = test system: Acinetobacter baumannii; assay: Antimicrobial activity against Acinetobacter baumannii isolate Ab181 overexpressing beta-lactamase OXA-51 gene mediated by novel insertion sequence ISAba9
[15] = test system: Acinetobacter baumannii; assay: Antimicrobial activity against Acinetobacter baumannii isolate Ab108 overexpressing beta-lactamase OXA-51 gene mediated by novel insertion sequence ISAba9
[16] = test system: Acinetobacter baumannii; assay: Antimicrobial activity against Acinetobacter baumannii isolate Ab3 overexpressing beta-lactamase OXA-51 gene mediated by novel insertion sequence ISAba9
[17] = test system: Acinetobacter baumannii; assay: Antimicrobial activity against Acinetobacter baumannii isolate Ab23 overexpressing beta-lactamase OXA-51 gene mediated by novel insertion sequence ISAba9
[18] = test system: Acinetobacter baumannii; assay: Antimicrobial activity against Acinetobacter baumannii isolate Ab150 overexpressing beta-lactamase OXA-51 gene mediated by novel insertion sequence ISAba9
[19] = test system: Acinetobacter baumannii; assay: Antimicrobial activity against Acinetobacter baumannii isolate Ab91 overexpressing beta-lactamase OXA-51 gene mediated by novel insertion sequence ISAba9
[20] = test system: Acinetobacter baumannii; assay: Antimicrobial activity against Acinetobacter baumannii isolate Ab168 overexpressing beta-lactamase OXA-51 gene mediated by novel insertion sequence ISAba9

Question: Which MIC [1] does the source give for `C[C@@H](O)[C@H]1C(=O)N2C(C(=O)O)=C(SCCNC=N)C[C@H]12` [IMIPENEM ANHYDROUS] here?
Answer: 16 µg/mL (≈ 53.4 µM)

Question: What about the MIC [2] of the same molecule?
Answer: 8 µg/mL (≈ 26.7 µM)

Question: And the MIC [3]?
Answer: 16 µg/mL (≈ 53.4 µM)

Question: What about the MIC [4] of the same molecule?
Answer: 8 µg/mL (≈ 26.7 µM)

Question: And the MIC [5]?
Answer: 16 µg/mL (≈ 53.4 µM)

Question: What about the MIC [6] of the same molecule?
Answer: 64 µg/mL (≈ 214 µM)

Question: And the MIC [7]?
Answer: 16 µg/mL (≈ 53.4 µM)

Question: And the MIC [8]?
Answer: 64 µg/mL (≈ 214 µM)

Question: What about the MIC [9] of the same molecule?
Answer: 64 µg/mL (≈ 214 µM)

Question: What about the MIC [10] of the same molecule?
Answer: 4 µg/mL (≈ 13.4 µM)

Question: What about the MIC [11] of the same molecule?
Answer: 64 µg/mL (≈ 214 µM)

Question: What about the MIC [12] of the same molecule?
Answer: 24 µg/mL (≈ 80.2 µM)

Question: What about the MIC [13] of the same molecule?
Answer: 64 µg/mL (≈ 214 µM)

Question: And the MIC [14]?
Answer: 32 µg/mL (≈ 107 µM)

Question: What about the MIC [15] of the same molecule?
Answer: 16 µg/mL (≈ 53.4 µM)

Question: What about the MIC [16] of the same molecule?
Answer: 8 µg/mL (≈ 26.7 µM)

Question: And the MIC [17]?
Answer: 64 µg/mL (≈ 214 µM)

Question: What about the MIC [18] of the same molecule?
Answer: 16 µg/mL (≈ 53.4 µM)

Question: What about the MIC [19] of the same molecule?
Answer: 16 µg/mL (≈ 53.4 µM)

Question: What about the MIC [20] of the same molecule?
Answer: 12 µg/mL (≈ 40.1 µM)

Question: `C[C@@H](O)[C@H]1C(=O)N2C(C(=O)O)=C(S[C@@H]3CN[C@H](C(=O)N(C)C)C3)[C@H](C)[C@H]12` [MEROPENEM] was tested. Which MIC [1] did it give?
Answer: 16 µg/mL (≈ 41.7 µM)

Question: And the MIC [2]?
Answer: 8 µg/mL (≈ 20.9 µM)

Question: What about the MIC [3] of the same molecule?
Answer: 16 µg/mL (≈ 41.7 µM)

Question: What about the MIC [4] of the same molecule?
Answer: 8 µg/mL (≈ 20.9 µM)

Question: What about the MIC [5] of the same molecule?
Answer: 16 µg/mL (≈ 41.7 µM)

Question: And the MIC [6]?
Answer: 64 µg/mL (≈ 167 µM)

Question: What about the MIC [7] of the same molecule?
Answer: 16 µg/mL (≈ 41.7 µM)

Question: And the MIC [8]?
Answer: 64 µg/mL (≈ 167 µM)

Question: And the MIC [9]?
Answer: 64 µg/mL (≈ 167 µM)

Question: And the MIC [10]?
Answer: 4 µg/mL (≈ 10.4 µM)

Question: And the MIC [11]?
Answer: 64 µg/mL (≈ 167 µM)

Question: What about the MIC [12] of the same molecule?
Answer: 24 µg/mL (≈ 62.6 µM)

Question: And the MIC [13]?
Answer: 64 µg/mL (≈ 167 µM)

Question: What about the MIC [14] of the same molecule?
Answer: 32 µg/mL (≈ 83.4 µM)

Question: And the MIC [15]?
Answer: 16 µg/mL (≈ 41.7 µM)

Question: And the MIC [16]?
Answer: 8 µg/mL (≈ 20.9 µM)

Question: What about the MIC [17] of the same molecule?
Answer: 64 µg/mL (≈ 167 µM)

Question: What about the MIC [18] of the same molecule?
Answer: 16 µg/mL (≈ 41.7 µM)

Question: What about the MIC [19] of the same molecule?
Answer: 16 µg/mL (≈ 41.7 µM)

Question: What about the MIC [20] of the same molecule?
Answer: 12 µg/mL (≈ 31.3 µM)
